Values of other authors in US20220202803A1, “COMBINATION THERAPIES INCLUDING INHIBITORS OF DIHYDROOROTATE DEHYDROGENASE” (Clear Creek Bio, Inc., priority 2019, published 2022).

Key:
mouse model of AML = conditions: daily administration of high doses
solid tumor malignancies = conditions: administered over a 5-day period followed by a 3-week gap or once per week for three weeks followed by a 1-week gap

For Cc1c(-c2ccc(-c3ccccc3F)cc2)nc2ccc(F)cc2c1C(=O)O [brequinar, 6-fluoro-2-(2′-fluoro-1,1′ biphenyl-4-yl)-3-methyl-4-quinoline carboxylic acid], the adverse effects (mouse model of AML) is listed as “weight loss, anemia, and thrombocytopenia” and the “efficacy in solid tumor malignancies” value (solid tumor malignancies) is listed as “ineffective”.
